Reference: ChEMBL document CHEMBL1134273, “Design, synthesis, and characterization of the antitumor activity of novel ceramide analogues” (J Med Chem, 2001)

Key:
[1] = test system: CCRF-CEM; experiment: Percentage increase in caspase-3 activity of CCRF-CEM human T-leukemia cells.; format: functional
[2] = test system: CCRF-CEM; experiment: In vitro growth inhibitory effect in human T-cell acute leukemia cells CCRF-CEM; format: functional, cell-based

Compound | Increase [1] | IC50 [2]
CCCCCCCCCCCCC/C=C/[C@@H](O)[C@H](CO)NC(C)=O | 2.8% | 31.6 µM
CCCCCCCCCCCCCCc1c(O)nc(O)nc1CC | 8.1% | 7.9 µM
CCCCCCCCCCCCCCc1nc(S)nc(O)c1CC | 1.2% | –
CCCCCCCCCCCCCCc1nc(O)nc(O)c1CC | 1.7% | –
CCCCCCCCCCCCCCc1c(O)nc(S)nc1CC | 5% | 1.7 µM
